Results: PMC3578011 (Journal of neurochemistry, 2013)
Entries after “also recorded” stand apart in the source; their conditions may differ.

Key:
[1] = target: T1, CB1 (Homo sapiens, UniProt P21554); conditions: for time of maximal ERK1/2 phosphorylation: 0.5 µM CP55,940 or 3.2 µM ICAM-b
[2] = target: CB1 wild-type receptor (Homo sapiens, UniProt P21554); test: [35S]GTPγS binding assay; type: biochemical
[3] = target: T1, CB1; test: Radioligand binding assay, cooperativity with [3H]CP55,940; conditions: for cooperativity factor (α): from [3H]CP55,940 binding curves, membranes of HEK293 cells expressing CB1
[4] = Solubility in organic solvents; type: physicochemical; conditions: except tetrahydrofuran (THF)
[5] = target: T1, CB1; test: Radioligand binding assay, cooperativity with [3H]SR141716A; conditions: for effect on [3H]SR141716A binding: in the concentration range tested
[6] = target: T1, CB1; type: binding; conditions: in the presence of ICAM-b

T1 sequence (P21554 whole entry): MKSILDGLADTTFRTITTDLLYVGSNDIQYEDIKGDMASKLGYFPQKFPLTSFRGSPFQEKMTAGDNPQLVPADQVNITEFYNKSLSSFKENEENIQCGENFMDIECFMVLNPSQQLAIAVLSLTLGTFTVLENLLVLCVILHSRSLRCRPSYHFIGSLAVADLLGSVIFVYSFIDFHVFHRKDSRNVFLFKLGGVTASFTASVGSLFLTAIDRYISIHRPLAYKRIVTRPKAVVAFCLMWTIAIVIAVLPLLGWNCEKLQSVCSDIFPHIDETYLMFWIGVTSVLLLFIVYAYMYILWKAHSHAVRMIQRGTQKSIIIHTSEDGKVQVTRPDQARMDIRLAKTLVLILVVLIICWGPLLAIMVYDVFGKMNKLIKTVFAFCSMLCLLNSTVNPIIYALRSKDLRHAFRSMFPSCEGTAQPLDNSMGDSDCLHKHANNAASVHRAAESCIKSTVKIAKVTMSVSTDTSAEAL
Sequence of CB1 wild-type receptor (P21554 whole entry): as above

Row | SMILES | time of maximal ERK1/2 phosphorylation ([1]; HEK293 cells expressing CB1) [min] | Emax of CP55,940-induced [35S]GTPγS binding ([2]; in the absence of ICAM-b) [fmol/mg] | Kb [3] [µM] | cooperativity factor (α) [3] | solubility in common organic solvents [4] | effect on [3H]SR141716A binding [5] | transient ERK1/2 phosphorylation compared with CP55,940 alone ([1]; ICAM-b alone, control siRNA, HEK293 cells expressing CB1) | effect of β-arrestin 2 siRNA on patterns of ERK1/2 phosphorylation ([1]; compared to control siRNA transfection) | Bmax changes for CP55,940 and SR141716A [6] | inhibition of CP55,940-induced [35S]GTPγS binding ([2]; 3.2 µM ICAM-b) | [35S]GTPγS binding level ([2]; 3.2 µM ICAM-b, basal level 50.1 fmol/mg) [fmol/mg] | Emax of CP55,940-induced [35S]GTPγS binding ([2]; in the presence of 0.32 µM ICAM-b) [fmol/mg] | Emax of CP55,940-induced [35S]GTPγS binding ([2]; in the presence of 1 µM ICAM-b) [fmol/mg] | cooperativity factor (α) ([5]; [3H]SR141716A as tracer, membranes of HEK293 cells expressing CB1)
1 | CCCCCCC(C)(C)c1ccc([C@@H]2C[C@H](O)CC[C@H]2CCCO)c(O)c1 [CP55,940, (1R,3R,4R)-3-[2-hydroxy-4-(1,1-dimethylheptyl)-phenyl]-4-(3-hydroxypropyl)cyclohexan-1-ol, reference compound] | 5 | 98.9 | – | – | – | – | – | – | – | – | – | – | – | –
2 | CCc1c(C(=O)NCCc2ccc(N3CCCCC3)cc2)n(C)c2ccc(Cl)cc12 [ICAM-a, 5-chloro-3-ethyl-1-methyl-N-(4-(piperidin-1-yl)phenethyl)-1H-indole-2-carboxamide] | – | – | 5.78 | 11.9 | poor | little effect; also recorded: no effect | – | – | – | – | – | – | – | –
3 | CCCCCc1c(C(=O)NCCc2ccc(N3CCCCC3)cc2)[nH]c2ccc(Cl)cc12 [ICAM-b, 5-chloro-3-pentyl-N-(4-(piperidin-1-yl)phenethyl)-1H-indole-2-carboxamide] | 5 | – | – | 17.6 | poor | substantial decrease | larger increase | did not alter | Negligible | complete inhibition | 42.1 | 78.7 | 59.3 | 0.11
